The assay relates to HEK293-STF3A cells. The assay is described as follows: STF3A assay (STF luciferase reporter in Wnt3A-expressing HEK293 cells). The note with it: Homo sapiens, 24 h, 1 day of treatment. It is filed as cell-based. In a few lines: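 HEK293 cells carrying the STF reporter and expressing Wnt3A, seeded 2×10^4 per well overnight, then treated 1 day with compound at final 50 μM to 1.5 nM. Luciferase activity read by luminescence after Steady-Glo reagent, 10 min at room temperature.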

Here are results for 32 molecules from US9981964B2 (Agency for Science, Technology and Research, priority 2013, dated 2018).

Take `CN1C(=O)C2=C(C1=O)N(CC(=O)Nc1ccc(-c3cccnc3)cc1)CCC2` [Compound 77, 2-(6-methyl-5,7-dioxo-2,3,4,5,6,7-hexahydro-1H-pyrrolo[3,4-b]pyridin-1-yl)-N-(4-(pyridin-3-yl)phenyl)acetamide]: the IC50 was under 100 nM.

Turning to `Cc1cc(-c2ccccc2)ccc1NC(=O)CN1CCCC2=C1C(=O)N(C)C2=O` [Compound 78, 2-(6-methyl-5,7-dioxo-2,3,4,5,6,7-hexahydro-1H-pyrrolo[3,4-b]pyridin-1-yl)-N-(3-methyl-[1,1′-biphenyl]-4-yl)acetamide], the IC50 is over 10000 nM.

`CN1C(=O)C2=C(C1=O)N(CC(=O)Nc1ccc(-c3ccncc3)cc1)CCC2` [Compound 79, 2-(6-methyl-5,7-dioxo-2,3,4,5,6,7-hexahydro-1H-pyrrolo[3,4-b]pyridin-1-yl)-N-(4-(pyridin-4-yl)phenyl)acetamide]: the IC50 is under 100 nM.

Regarding `CN1C(=O)C2=C(C1=O)N(CC(=O)Nc1ccc(-c3ccccc3)c(F)c1)CCC2` [Compound 80, N-(2-fluoro-[1,1′-biphenyl]-4-yl)-2-(6-methyl-5,7-dioxo-2,3,4,5,6,7-hexahydro-1H-pyrrolo[3,4-b]pyridin-1-yl)acetamide], the IC50 was under 100 nM.

Turning to `COc1cc(-c2ccccc2)ccc1NC(=O)CN1CCCC2=C1C(=O)N(C)C2=O` [Compound 81, N-(3-methoxy-[1,1′-biphenyl]-4-yl)-2-(6-methyl-5,7-dioxo-2,3,4,5,6,7-hexahydro-1H-pyrrolo[3,4-b]pyridin-1-yl)acetamide], the half-maximal inhibitory concentration (IC50) is over 10000 nM.

As to `Cc1cc(NC(=O)CN2CCCC3=C2C(=O)N(C)C3=O)ccc1-c1ccccc1` [Compound 82, 2-(6-methyl-5,7-dioxo-2,3,4,5,6,7-hexahydro-1H-pyrrolo[3,4-b]pyridin-1-yl)-N-(2-methyl-[1,1′-biphenyl]-4-yl)acetamide], the IC50 was under 100 nM.

With `CN1C(=O)C2=C(C1=O)N(CC(=O)Nc1ccc(-c3ccccc3)cc1F)CCC2` [Compound 83, N-(3-fluorobiphenyl-4-yl)-2-(6-methyl-5,7-dioxo-2,3,4,5,6,7-hexahydro-1H-pyrrolo[3,4-b]pyridin-1-yl)acetamide], the IC50 was under 100 nM.

In turn, `CN1C(=O)C2=C(C1=O)N(CC(=O)Nc1ccc(-c3ccccc3F)nn1)CCC2` [Compound 84, N-(6-(2-fluorophenyl)pyridazin-3-yl)-2-(6-methyl-5,7-dioxo-2,3,4,5,6,7-hexahydro-1H-pyrrolo[3,4-b]pyridin-1-yl)acetamide] displayed an IC50 of under 100 nM.

Molecule `Cc1ccc(-c2ccc(NC(=O)CN3CCCC4=C3C(=O)N(C3CC3)C4=O)nc2)cn1` [Compound 85, 2-(6-cyclopropyl-5,7-dioxo-2,3,4,5,6,7-hexahydro-1H-pyrrolo[3,4-b]pyridin-1-yl)-N-(6′-methyl-[3,3′-bipyridin]-6-yl)acetamide] registered an IC50 of under 100 nM.

For the molecule `Cc1ccc(-c2ccc(NC(=O)CN3CCCC4=C3C(=O)N(C3CC3)C4=O)nn2)cn1` [Compound 86, 2-(6-cyclopropyl-5,7-dioxo-2,3,4,5,6,7-hexahydro-1H-pyrrolo[3,4-b]pyridin-1-yl)-N-(6-(6-methylpyridin-3-yl)pyridazin-3-yl)acetamide], the IC50 is under 100 nM.

Molecule `O=C(CN1CCCC2=C1C(=O)N(C1CC1)C2=O)Nc1ccc(-c2cncc(F)c2)nc1` [Compound 87, 2-(6-cyclopropyl-5,7-dioxo-2,3,4,5,6,7-hexahydro-1H-pyrrolo[3,4-b]pyridin-1-yl)-N-(5′-fluoro-[2,3′-bipyridin]-5-yl)acetamide] registered an IC50 of under 100 nM.

`CN1C(=O)C2=C(C1=O)N(CC(=O)Nc1ccc(-c3ccncc3)cn1)CCC2` [Compound 88, N-([3,4′-bipyridin]-6-yl)-2-(6-methyl-5,7-dioxo-2,3,4,5,6,7-hexahydro-1H-pyrrolo[3,4-b]pyridin-1-yl)acetamide] displayed an IC50 of under 1000 nM.

The molecule `O=C(CN1CCCC2=C1C(=O)N(C1CC1)C2=O)Nc1ccc(-c2cncnc2)cn1` [Compound 89, 2-(6-cyclopropyl-5,7-dioxo-2,3,4,5,6,7-hexahydro-1H-pyrrolo[3,4-b]pyridin-1-yl)-N-(5-(pyrimidin-5-yl)pyridin-2-yl)acetamide] showed an IC50 of under 100 nM.

The molecule `O=C(CN1CCCC2=C1C(=O)N(C1CC1)C2=O)Nc1ccc(-c2cncnc2)cc1` [Compound 90, 2-(6-cyclopropyl-5,7-dioxo-2,3,4,5,6,7-hexahydro-1H-pyrrolo[3,4-b]pyridin-1-yl)-N-(4-(pyrimidin-5-yl)phenyl)acetamide] returned an IC50 of under 100 nM.

Turning to `CC(C(=O)Nc1ccc(-c2ccc(F)nc2)cn1)N1CCCC2=C1C(=O)N(C)C2=O` (centres unmarked) [Compound 96, N-(6′-fluoro-3,3′-bipyridin-6-yl)-2-(6-methyl-5,7-dioxo-2,3,4,5,6,7-hexahydro-1H-pyrrolo[3,4-b]pyridin-1-yl)propanamide], the IC50 is under 1000 nM.

Molecule `CC(C(=O)Nc1ccc(-c2cccnc2F)cn1)N1CCCC2=C1C(=O)N(C)C2=O` (centres unmarked) [Compound 97, N-(2′-fluoro-3,3′-bipyridin-6-yl)-2-(6-methyl-5,7-dioxo-2,3,4,5,6,7-hexahydro-1H-pyrrolo[3,4-b]pyridin-1-yl)propanamide] had an IC50 of under 100 nM.

In the case of `COc1cc(NC(=O)CN2CCCC3=C2C(=O)N(C)C3=O)ccc1-c1ccccc1` [Compound 99, N-(2-methoxy-[1,1′-biphenyl]-4-yl)-2-(6-methyl-5,7-dioxo-2,3,4,5,6,7-hexahydro-1H-pyrrolo[3,4-b]pyridin-1-yl)acetamide], the IC50 was under 10000 nM.

With `CN1C(=O)C2=C(C1=O)N(CC(=O)Nc1ccc(-c3cncc(F)c3)nc1)CCC2` [Compound 100, N-(5′-fluoro-[2,3′-bipyridin]-5-yl)-2-(6-methyl-5,7-dioxo-2,3,4,5,6,7-hexahydro-1H-pyrrolo[3,4-b]pyridin-1-yl)acetamide], the IC50 is under 100 nM.

The molecule `CN1C(=O)C2=C(C1=O)N(CC(=O)Nc1ccc(-c3cncnc3)cn1)CCC2` [Compound 101, 2-(6-methyl-5,7-dioxo-2,3,4,5,6,7-hexahydro-1H-pyrrolo[3,4-b]pyridin-1-yl)-N-(5-(pyrimidin-5-yl)pyridin-2-yl)acetamide] had an IC50 of under 100 nM.

`O=C(CN1CCCC2=C1C(=O)N(C1CC1)C2=O)Nc1ccc(-c2cncnc2)nc1` [Compound 102, 2-(6-cyclopropyl-5,7-dioxo-2,3,4,5,6,7-hexahydro-1H-pyrrolo[3,4-b]pyridin-1-yl)-N-(6-(pyrimidin-5-yl)pyridin-3-yl)acetamide] showed an IC50 of under 100 nM.

`CN1C(=O)C2=C(C1=O)N(CC(=O)Nc1ccc(-c3cncnc3)nc1)CCC2` [Compound 103, 2-(6-methyl-5,7-dioxo-2,3,4,5,6,7-hexahydro-1H-pyrrolo[3,4-b]pyridin-1-yl)-N-(6-(pyrimidin-5-yl)pyridin-3-yl)acetamide] showed an IC50 of under 1000 nM.

Take `O=C(CN1CCCC2=C1C(=O)N(C1CC1)C2=O)Nc1ccc(-c2cccnc2F)cn1` [Compound 104, 2-(6-cyclopropyl-5,7-dioxo-2,3,4,5,6,7-hexahydro-1H-pyrrolo[3,4-b]pyridin-1-yl)-N-(2′-fluoro-[3,3′-bipyridin]-6-yl)acetamide]: the IC50 is under 100 nM.

On to `O=C(CN1CCCC2=C1C(=O)N(C1CC1)C2=O)Nc1ccc(-c2ccc(F)nc2)cn1` [Compound 105, 2-(6-cyclopropyl-5,7-dioxo-2,3,4,5,6,7-hexahydro-1H-pyrrolo[3,4-b]pyridin-1-yl)-N-(6′-fluoro-[3,3′-bipyridin]-6-yl)acetamide], for which the IC50 was under 100 nM.

Molecule `O=C(CN1CCCC2=C1C(=O)N(C1CC1)C2=O)Nc1ccc(-c2cncc(F)c2)cn1` [Compound 106, 2-(6-cyclopropyl-5,7-dioxo-2,3,4,5,6,7-hexahydro-1H-pyrrolo[3,4-b]pyridin-1-yl)-N-(5′-fluoro-[3,3′-bipyridin]-6-yl)acetamide] yielded an IC50 of under 100 nM.

In turn, `O=C(CN1CCCC2=C1C(=O)N(C1CC1)C2=O)Nc1ncc(-c2cccnc2)cc1F` [Compound 107, 2-(6-cyclopropyl-5,7-dioxo-2,3,4,5,6,7-hexahydro-1H-pyrrolo[3,4-b]pyridin-1-yl)-N-(5-fluoro-[3,3′-bipyridin]-6-yl)acetamide] displayed an IC50 of under 1000 nM.

For `CN1C(=O)C2=C(C1=O)N(CC(=O)Nc1ccc(-c3ccc(F)nc3)nc1)CCC2` [Compound 108, N-(6′-fluoro-[2,3′-bipyridin]-5-yl)-2-(6-methyl-5,7-dioxo-2,3,4,5,6,7-hexahydro-1H-pyrrolo[3,4-b]pyridin-1-yl)acetamide], the IC50 is under 1000 nM.

`Cc1ncccc1-c1ccc(NC(=O)CN2CCCC3=C2C(=O)N(C2CC2)C3=O)nc1` [Compound 110, 2-(6-cyclopropyl-5,7-dioxo-2,3,4,5,6,7-hexahydro-1H-pyrrolo[3,4-b]pyridin-1-yl)-N-(2′-methyl-[3,3′-bipyridin]-6-yl)acetamide] returned an IC50 of under 1000 nM.

Molecule `Cc1ccncc1-c1ccc(NC(=O)CN2CCCC3=C2C(=O)N(C2CC2)C3=O)nc1` [Compound 111, 2-(6-cyclopropyl-5,7-dioxo-2,3,4,5,6,7-hexahydro-1H-pyrrolo[3,4-b]pyridin-1-yl)-N-(4′-methyl-[3,3′-bipyridin]-6-yl)acetamide] came in with an IC50 of under 1000 nM.

In turn, `Cc1nc(NC(=O)CN2CCCC3=C2C(=O)N(C)C3=O)ccc1-c1cccnc1` [Compound 112] showed an IC50 of under 10000 nM.

As for `Cc1cc(-c2cccnc2)cnc1NC(=O)CN1CCCC2=C1C(=O)N(C)C2=O` [Compound 113, 2-(6-methyl-5,7-dioxo-2,3,4,5,6,7-hexahydro-1H-pyrrolo[3,4-b]pyridin-1-yl)-N-(5-methyl-[3,3′-bipyridin]-6-yl)acetamide], the IC50 is over 10000 nM.

In turn, `Cc1cc(NC(=O)CN2CCCC3=C2C(=O)N(C)C3=O)ncc1-c1cccnc1` [Compound 114, 2-(6-methyl-5,7-dioxo-2,3,4,5,6,7-hexahydro-1H-pyrrolo[3,4-b]pyridin-1-yl)-N-(4-methyl-[3,3′-bipyridin]-6-yl)acetamide] came in with an IC50 of under 5000 nM.

In turn, `CN1C(=O)C2=C(C1=O)N(CC(=O)Nc1ccc(-c3cnccn3)cc1)CCC2` [Compound 118, 2-(6-methyl-5,7-dioxo-2,3,4,5,6,7-hexahydro-1H-pyrrolo[3,4-b]pyridin-1-yl)-N-(4-(pyrazin-2-yl)phenyl)acetamide] yielded an IC50 of under 100 nM.
